Data: patent US8710224B2, “Heterocyclic compounds as CCR2B antagonists” (AstraZeneca AB, priority 2004, dated 2014)

Target: T1, recombinant human CCR5 receptor (Homo sapiens, UniProt P51681)
T1 construct: expressed in transfected cells; host or cells: Chinese hamster ovary (CHO) cells; membranes
Experiment: Radioligand binding assay for inhibition of the binding of MIP-1α
Settings: displacement of 0.1 nM iodinated MIP-1α; membranes of Chinese hamster ovary cells expressing CCR5
Description: Biological Assay for the Ability of Compounds to Inhibit the Binding of MIP-1α This ability is assessed using an in vitro radioligand binding assay. Membranes are prepared from Chinese hamster ovary cells which express the recombinant human CCR5 receptor. These membranes are incubated with 0.1 nM iodinated MIP-1α, scintillation proximity beads and various concentrations of the compounds of the invention in 96-well plates. The amount of iodinated MIP-1α bound to the receptor is then determined by scintillation counting.

T1 sequence (P51681 whole entry): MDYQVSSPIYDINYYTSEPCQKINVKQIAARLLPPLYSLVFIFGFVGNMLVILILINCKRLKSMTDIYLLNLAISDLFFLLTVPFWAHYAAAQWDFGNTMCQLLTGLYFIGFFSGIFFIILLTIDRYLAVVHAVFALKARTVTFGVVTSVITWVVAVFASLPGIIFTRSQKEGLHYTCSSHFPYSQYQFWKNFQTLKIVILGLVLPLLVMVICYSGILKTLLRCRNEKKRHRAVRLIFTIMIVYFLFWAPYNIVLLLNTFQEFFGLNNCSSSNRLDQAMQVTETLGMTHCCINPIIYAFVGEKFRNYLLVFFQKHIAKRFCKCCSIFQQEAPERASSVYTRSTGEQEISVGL

Compound | IC50 [µM]
O=C(Nc1ccc(Cl)c(Cl)c1)N1CCN(C[C@@H]2CCCN(C3Cc4ccccc4C3)C2)CC1 [Example 161, N-(3,4-dichlorophenyl)-4-{[(3S)-1-(2,3-dihydro-1H-inden-2-yl)piperidin-3-yl]methyl}piperazine-1-carboxamide] | < 10
CC(C)CC(C)N1CCOC(CN2CCN(C(=O)Nc3ccc(F)c(Cl)c3)CC2)C1 (stereo in doubt) [Example 259, N-(3-chloro-4-fluorophenyl)-4-({(2R)-4-[(1R)-1,3-dimethylbutyl]morpholin-2-yl}methyl)piperazine-1-carboxamide] | < 10
CS(=O)(=O)c1ccc(CN2CCC[C@@H](CN3CCN(C(=O)Nc4ccc(Cl)c(Cl)c4)CC3)C2)c(Cl)c1 [Example 322, 4-({(3R)-1-[2-Chloro-4-(methylsulfonyl)benzyl]piperidin-3-yl}methyl)-N-(3,4-dichlorophenyl)piperazine-1-carboxamide] | < 10
O=C(Nc1ccc(Cl)c(Cl)c1)N1CCN(C[C@H]2CN(C3CCC(O)CC3)CCO2)CC1 (stereo partly drawn) [Example 122, N-(3,4-dichlorophenyl)-4-{[(2S)-4-(4-hydroxycyclohexyl)morpholin-2-yl]methyl}piperazine-1-carboxamide] | < 10
O=C(Nc1ccc(Cl)c(Cl)c1)N1CCN(C[C@@H]2CCCN(CCC3CCNCC3)C2)CC1 [Example 205, N-(3,4-Dichlorophenyl)-4-{[(3R)-1-(2-piperidin-4-ylethyl)piperidin-3-yl]methyl}piperazine-1-carboxamide] | < 10
N#C/N=C(\Nc1ccc(Cl)c(Cl)c1)N1CCN(C[C@@H]2CCCN(CCc3ccccc3)C2)CC1 [Example 79, N-cyano-N-(3,4-dichlorophenyl)-4-{[(3R)-1-(2-phenylethyl)piperidin-3-yl]methyl}piperazine-1-carboximidamide] | < 10
CS(=O)(=O)c1ccc(CCCN2CCC[C@@H](CN3CCN(C(=O)Nc4ccc(C(F)(F)F)cc4)CC3)C2)cc1 [Example 326, 4-[((3R)-1-{3-[4-(Methylsulfonyl)phenyl]propyl}piperidin-3-yl)methyl]-N-[4-(trifluoromethyl)phenyl]piperazine-1-carboxamide] | < 10
O=C(Nc1ccc(Cl)c(Cl)c1)N1CCN(CC2CCCN(C3CC3)C2)CC1 (stereo in doubt) [Example 139, 1-{[(3R)-1-Cyclopropylpiperidin-3-yl]methyl}-N-(3,4-dichlorophenyl)piperazine-4-carboxamide] | < 10
CC(C)N1CCN[C@@H](C(=O)N2CCN(C(=O)Nc3ccc(C#N)c(C(F)(F)F)c3)CC2)C1 [Example 292, N-[4-Cyano-3-(trifluoromethyl)phenyl]-4-{[(2R)-4-isopropylpiperazin-2-yl]carbonyl}piperazine-1-carboxamide] | < 10
CC(C)N1CCO[C@@H](CN2CCN(C(=O)Nc3cccs3)CC2)C1 [Example 188, 4-{[(2S)-4-isopropylmorpholin-2-yl]methyl}-N-2-thienylpiperazine-1-carboxamide] | < 10
O=C(Nc1cccc(Cl)c1)N1CCN(C[C@@H]2CCCN(CCc3ccccc3)C2)CC1 [Example 180, N-(3-chlorophenyl)-4-{[(3R)-1-(2-phenylethyl)piperidin-3-yl]methyl} piperazine-1-carboxamide] | < 10
Cc1ccc(NC(=O)N2CCN(C(=O)[C@H]3CN(C(C)C)CCN3)CC2)cc1F [Example 218, N-(3-fluoro-4-methylphenyl)-4-{[(2R)-4-isopropylpiperazin-2-yl]carbonyl}piperazine-1-carboxamide] | < 10
CC(C)N1CCO[C@@H](CN2CCN(C(=O)Nc3ccc(C(F)(F)F)nc3)CC2)C1 [Example 192, 4-{[(2S)-4-isopropylmorpholin-2-yl]methyl}-N-[6-(trifluoromethyl)pyridin-3-yl]piperazine-1-carboxamide] | < 10
CC(C)N1CC[C@@H](CN2CCN(C(=O)Nc3ccc(Cl)c(Cl)c3)CC2)C1 [Example 231, N-(3,4-dichlorophenyl)-4-{[(3S)-1-isopropylpyrrolidin-3-yl]methyl}piperazine-1-carboxamide] | < 10
O=C(Nc1ccc(Cl)c(Cl)c1)N1CCN(C(=O)[C@H]2CN(C3CCCC3)CCN2)CC1 [Example 276, 4-{[(2R)-4-Cyclopentylpiperazin-2-yl]carbonyl}-N-(3,4-dichlorophenyl)piperazine-1-carboxamide] | < 10
O=C(Nc1ccc(Cl)c(Cl)c1)N1CCN(C[C@@H]2CCCN(CCOc3ccc(F)cc3)C2)CC1 [Example 171, N-(3,4-Dichlorophenyl)-4-({(3S)-1-[2-(4-fluorophenoxy)ethyl]piperidin-3-yl}methyl)piperazine-1-carboxamide] | < 10
CC(C)(C)c1cc(NC(=O)N2CCN(C[C@@H]3CCCN(C4CC4)C3)CC2)no1 [Example 112, N-(5-tert-butylisoxazol-3-yl)-4-{[(3S)-1-cyclopropylpiperidin-3-yl]methyl}piperazine-1-carboxamide] | < 10

Compound | IC50 [µM]
CN1CCCC(CN2CCN(C(=O)Nc3cc(Cl)cc(Cl)c3)CC2)C1 (stereo not shown) [Example 41, N-(3,5-dichlorophenyl)-4-[(1-methylpiperidin-3-yl)methyl]piperazine-1-carboxamide] | < 10
O=C1CN(C(=O)Nc2ccc(Cl)c(Cl)c2)CCN1CC1CCCN(Cc2ccccc2)C1 (stereo not shown) [Example 42, 4-[(1-benzylpiperidin-3-yl)methyl]-N-(3,4-dichlorophenyl)-3-oxopiperazine-1-carboxamide] | < 10
O=C(Nc1ccc(Cl)c(Cl)c1)N1CCN(C[C@@H]2CCCN(C3CCC(O)CC3)C2)CC1 (stereo partly drawn) [Example 145, N-(3,4-dichlorophenyl)-4-{[(3S)-1-(4-hydroxycyclohexyl)piperidin-3-yl]methyl}piperazine-1-carboxamide] | < 10
O=C(Nc1ccc(Cl)c(Cl)c1)N1CCN(C[C@H]2CN(C3CCCC3)CCO2)CC1 [Example 118, 4-{[(2S)-4-cyclopentylmorpholin-2-yl]methyl}-N-(3,4-dichlorophenyl)piperazine-1-carboxamide] | < 10
Cc1ccc(NC(=O)N2CCN(C[C@@H]3CCCN(C4CC4)C3)CC2)cc1Cl [Example 110, N-(3-chloro-4-methylphenyl)-4-{[(3S)-1-cyclopropylpiperidin-3-yl]methyl}piperazine-1-carboxamide] | < 10
O=C(Nc1ccc(Cl)c(Cl)c1)N1CCN(C[C@@H]2CCCN(CC(c3ccccc3)c3ccccc3)C2)CC1 [Example 153, N-(3,4-Dichlorophenyl)-4-{[(3R)-1-(2,2-diphenylethyl)piperidin-3-yl]methyl}piperazine-1-carboxamide] | < 10
O=C(Nc1ccc(Cl)c(Cl)c1)N1CCN(CC2CCN([C@H]3CC[C@](O)(c4ccncc4)CC3)C2)CC1 (stereo partly shown) [Example 150, N-(3,4-dichlorophenyl)-4-{[1-(4-hydroxy-4-pyridin-4-ylcyclohexyl)pyrrolidin-3-yl]methyl}piperazine-1-carboxamide] | < 10
O=C(Nc1ccc(Cl)c(Cl)c1)N1CCN(C[C@H]2CCN([C@H]3CC[C@H](O)CC3)C2)CC1 [Example 232, N-(3,4-dichlorophenyl)-4-{[(3R)-1-(trans-4-hydroxycyclohexyl)pyrrolidin-3-yl]methyl}piperazine-1-carboxamide] | < 10
Nc1ncccc1CN1CCCC(CN2CCN(C(=O)Nc3ccc(F)c(Cl)c3)CC2)C1 (stereo not shown) [Example 266, 4-({1-[(2-aminopyridin-3-yl)methyl]piperidin-3-yl}methyl)-N-(3-chloro-4-fluorophenyl)piperazine-1-carboxamide] | < 10
CC(C)N1CCN[C@@H](C(=O)N2CCN(C(=O)Nc3cccc(Oc4ccccc4)c3)CC2)C1 [Example 260, 4-{[(2R)-4-Isopropylpiperazin-2-yl]carbonyl}-N-(3-phenoxyphenyl) piperazine-1-carboxamide] | < 10
O=C(Nc1ccc(Cl)c(Cl)c1)N1CCN(C[C@@H]2CCCN(Cc3ccc(O)nc3)C2)CC1 [Example 257, N-(3,4-dichlorophenyl)-4-({(3R)-1-[(6-hydroxypyridin-3-yl)methyl]piperidin-3-yl}methyl)piperazine-1-carboxamide] | < 10
CN1CCN[C@@H](C(=O)N2CCN(C(=O)Nc3ccc(Cl)c(Cl)c3)CC2)C1 [Example 210, N-(3,4-Dichlorophenyl)-4-{[(2R)-4-methylpiperazin-2-yl]carbonyl}piperazine-1-carboxamide] | < 10
CC(=O)N1CCC(N2CCC[C@@H](CN3CCN(C(=O)Nc4ccc(Cl)c(Cl)c4)CC3)C2)CC1 [Example 175, 4-{[(3S)-1′-Acetyl-1,4′-bipiperidin-3-yl]methyl}-N-(3,4-dichlorophenyl)piperazine-1-carboxamide] | < 10
O=C(Nc1ccc(Cl)c(Cl)c1)N1CCN(CC2CCCN(CC(O)c3cccc[n+]3[O-])C2)CC1 (stereo in doubt) [Example 267, N-(3,4-dichlorophenyl)-4-({(3R)-1-[2-hydroxy-2-(1-oxidopyridin-2-yl)ethyl]piperidin-3-yl}methyl)piperazine-1-carboxamide] | < 10
CS(=O)(=O)c1ccc(CCCN2CCC[C@@H](CN3CCN(C(=O)Nc4ccccc4)CC3)C2)cc1 [Example 254, 4-[[(3R)-1-[3-(4-methylsulfonylphenyl)propyl]-3-piperidyl]methyl]-N-phenyl-piperazine-1-carboxamide] | < 10
O=C(Nc1ccccc1)N1CCN(C[C@@H]2CCCN(CCc3ccc(Cl)cc3)C2)CC1 [Example 249, 4-[[(3R)-1-[2-(4-chlorophenyl)ethyl]-3-piperidyl]methyl]-N-phenyl-piperazine-1-carboxamide] | < 10
O=C(Nc1ccc(Cl)cc1)N1CCN(CC2CCCN(C3CC3)C2)CC1 (stereo in doubt) [Example 185, N-(4-chlorophenyl)-4-{[(3R)-1-(2-cyclopropyl)piperidin-3-yl]methyl}piperazine-1-carboxamide] | < 10
